How the values were obtained:
[1] = system: acid phosphatase and pyrophosphatase; test: Inhibition of the enzymatic hydrolysis of pyrophosphate; type: biochemical; conditions: 480 ppm pyrophosphate, tris buffer pH=7
Protocol: To a solution, 3 ml, containing 480 ppm of pyrophosphate, various polymers, as defined in the table, optionally in combination with fluoride, and tris buffer (pH=7), 6*10^-2 U acid phosphatase and 4*10^-2 U pyrophosphatase ware added. The enzymatic hydrolysis of pyrophosphatase was determined by the withdrawal of 0.5 ml samples and measuring the orthophosphate concentration (V/MO complex).

[2] = Triclosan concentration in supernatant with polymer; conditions: 3000 ppm triclosan, no polymer
Protocol: Polymer and 3000 ppm bactericide (Bromochlorophene (BCP) or triclosan) were solved in distilled water at pH=12.5 (NaOH). […] The bactericide concentration was determined at pH 8, 7 or 6 in the supernatant solution by UV/VIS at pH=12.5 and 37° C.

With `[F-].[Na+]` [NaF, sodium fluoride] the “ppm orthophosphate after 60 min” value [1] was 1.8 ppm, the “ppm orthophosphate after 120 min” value [1] was 3.9 ppm and the “ppm orthophosphate after 240 min” value [1] was 9.6 ppm.

With `Oc1cc(Cl)ccc1Oc1ccc(Cl)cc1Cl` [triclosan, 5-chloro-2-(2,4-dichlorophenoxy)phenol] the “ppm triclosan in supernatant at pH 6” value [2] was 7 ± 3 ppm, the “ppm triclosan in supernatant at pH 7” value [2] was 15 ± 1 ppm and the “ppm triclosan in supernatant at pH 8” value [2] was 30 ± 2 ppm.

Source: patent US5670138A, “Mouth-care products” (Sara Lee/DE N.V., priority 1994, dated 1997)
